# Data as given in US12552752B2, “Atropisomers of pyridazinone derivatives as herbicides” (FMC Corporation, priority 2020, dated 2026).
# Where “and” joins values, the source holds several entries; their conditions need not be identical. Identical values can stand only once.
# Tests used:
# Type in all cases: in vivo
# [1] = test system: pigweed (PWR, Amaranthus retroflexus); test: Test A preemergence, pigweed; conditions: PRE, 0 to 100 scale, approximately 10 d
# Excerpt: (§1) Seeds of plant species selected from barnyardgrass (BYG, Echinochloa crus-galli), kochia (KOC, Kochia scoparia), ragweed (common ragweed, Ambrosia elatior), ryegrass, Italian (RGI, Lolium multiflorum), foxtail, giant (FTI, Setaria faberii), foxtail, green (Setaria viridis) and pigweed (PWR, Amaranthus retroflexus) were planted into a blend of loam soil and sand and treated preemergence with a directed soil spray using test chemicals formulated in a non-phytotoxic solvent mixture which included a surfactant. At the same time, plants selected from these weed species and also wheat (WWT, Triticum aestivum), corn (CPI, Zea mays), blackgrass (BKG, Alopecurus myosuroides) and galium (GAL, catchweed bedstraw, Galium aparine) were planted in pots containing the same blend of loam soil and sand and treated with postemergence applications of test chemicals formulated in the same manner Plants ranged in height from 2 to 10 cm and were in the one- to two-leaf stage for the postemergence treatment. Treated plants and untreated controls were maintained in a greenhouse for approximately 10 d, after which time all treated plants were compared to untreated controls and visually evaluated for injury. Plant response ratings, summarized in Tables 1-4, are based on a 0 to 100 scale where 0 is no effect and 100 is complete control. A dash (−) response means no test result. The ratings are followed by a letter representing the symptomology where S is Albinism, C is Chlorosis, G is Growth Inhibition and E is Emergence.
# [2] = test system: foxtail, giant (FTI, Setaria faberii); test: Test A preemergence, giant foxtail; conditions: PRE, 0 to 100 scale, approximately 10 d
# Excerpt: as §1
# [3] = test system: ragweed (common ragweed, Ambrosia elatior); test: Test A preemergence, ragweed; conditions: PRE, 0 to 100 scale, approximately 10 d
# Excerpt: as §1
# corn (CPI, Zea mays) = test: Test A postemergence, corn; conditions: POST, 0 to 100 scale, approximately 10 d
# Excerpt: as §1
# [4] = test system: barnyardgrass (BYG, Echinochloa crus-galli); test: Test A preemergence, barnyardgrass; conditions: PRE, 0 to 100 scale, approximately 10 d
# Excerpt: as §1
# [5] = test system: ryegrass, Italian (RGI, Lolium multiflorum); test: Test A preemergence, Italian ryegrass; conditions: PRE, 0 to 100 scale, approximately 10 d
# Excerpt: as §1
# [6] = test system: kochia (KOC, Kochia scoparia); test: Test A preemergence, kochia; conditions: PRE, 0 to 100 scale, approximately 10 d
# Excerpt: as §1
# [7] = test system: blackgrass (BKG, Alopecurus myosuroides); test: Test A postemergence, blackgrass; conditions: POST, 0 to 100 scale, approximately 10 d
# Excerpt: as §1
# [8] = test system: barnyardgrass (BYG, Echinochloa crus-galli); test: Test A postemergence, barnyardgrass; conditions: POST, 0 to 100 scale, approximately 10 d
# Excerpt: as §1
# [9] = test system: pigweed (PWR, Amaranthus retroflexus); test: Test A postemergence, pigweed; conditions: POST, 0 to 100 scale, approximately 10 d
# Excerpt: as §1
# [10] = test system: ragweed (common ragweed, Ambrosia elatior); test: Test A postemergence, ragweed; conditions: POST, 0 to 100 scale, approximately 10 d
# Excerpt: as §1
# [11] = test system: galium (GAL, catchweed bedstraw, Galium aparine); test: Test A postemergence, galium; conditions: POST, 0 to 100 scale, approximately 10 d
# Excerpt: as §1
# [12] = test system: wheat (WWT, Triticum aestivum); test: Test A postemergence, wheat; conditions: POST, 0 to 100 scale, approximately 10 d
# Excerpt: as §1
# [13] = test system: foxtail, giant (FTI, Setaria faberii); test: Test A postemergence, giant foxtail; conditions: POST, 0 to 100 scale, approximately 10 d
# Excerpt: as §1
# [14] = test system: ryegrass, Italian (RGI, Lolium multiflorum); test: Test A postemergence, Italian ryegrass; conditions: POST, 0 to 100 scale, approximately 10 d
# Excerpt: as §1
# [15] = test system: kochia (KOC, Kochia scoparia); test: Test A postemergence, kochia; conditions: POST, 0 to 100 scale, approximately 10 d
# Excerpt: as §1
# [16] = 16 g ai/ha, listed as drawing 31
# [17] = 62 g ai/ha, listed as drawing 31
# [18] = 125 g ai/ha, listed as drawing 31
# [19] = 31 g ai/ha, listed as drawing 31
# [20] = 16 g ai/ha, listed as drawing 32
# [21] = 62 g ai/ha, listed as drawing 32
# [22] = 125 g ai/ha, listed as drawing 32
# [23] = 31 g ai/ha, listed as drawing 32
# [24] = 31 g ai/ha, listed as drawing 25
# [25] = 125 g ai/ha, listed as drawing 25
compound,measurement,setting,value
CCC(=O)Oc1c(Cl)nn(C)c(=O)c1-c1c(C)ccc2ccccc12 (racemic) [5 (Enantiomer 5A)],Plant response rating PWR,[1]; [16],10 C
same,Plant response rating PWR,[1]; 31 g ai/ha,60 C and 100 C
same,Plant response rating PWR,[1]; [17],90 C
same,Plant response rating FTI,[2]; 16 g ai/ha,0
same,Plant response rating FTI,[2]; [17],0
same,Plant response rating RWC,[3]; [16],0
same,Plant response rating RWC,[3]; [17],90 C
same,Plant response rating RWC,[3]; [18],100 C and 90 C
same,Plant response rating CPI,"corn (CPI, Zea mays); 16 g ai/ha",0
same,Plant response rating CPI,"corn (CPI, Zea mays); [19]",0
same,Plant response rating CPI,"corn (CPI, Zea mays); 62 g ai/ha",0
same,Plant response rating BYG,[4]; 16 g ai/ha,0
same,Plant response rating BYG,[4]; 31 g ai/ha,0
same,Plant response rating BYG,[4]; 62 g ai/ha,0
same,Plant response rating RGI,[5]; 16 g ai/ha,0
same,Plant response rating RGI,[5]; 31 g ai/ha,0
same,Plant response rating RGI,[5]; [17],0
same,Plant response rating RGI,[5]; [18],30 S and 20 S
same,Plant response rating KOC,[6]; 16 g ai/ha,10 C
same,Plant response rating KOC,[6]; [17],70 S
same,Plant response rating KOC,[6]; [18],80 S
same,Plant response rating BKG,[7]; [16],0
same,Plant response rating BKG,[7]; [19],0
same,Plant response rating BKG,[7]; [17],0
same,Plant response rating BYG,[8]; [16],0
same,Plant response rating BYG,[8]; [17],0
same,Plant response rating BYG,[8]; [18],30 S and 20 S
same,Plant response rating PWR,[9]; [16],80 S
same,Plant response rating PWR,[9]; 31 g ai/ha,90 S
same,Plant response rating PWR,[9]; 62 g ai/ha,90 S
same,Plant response rating PWR,[9]; [18],90 S
same,Plant response rating RWC,[10]; [16],80 S
same,Plant response rating RWC,[10]; 31 g ai/ha,90 S
same,Plant response rating RWC,[10]; 62 g ai/ha,90 S
same,Plant response rating RWC,[10]; [18],90 S
same,Plant response rating GAL,[11]; 16 g ai/ha,90 S
same,Plant response rating GAL,[11]; [19],90 S
same,Plant response rating GAL,[11]; 62 g ai/ha,100 S
same,Plant response rating GAL,[11]; 125 g ai/ha,100 S
same,Plant response rating WWT,[12]; [16],0
same,Plant response rating WWT,[12]; [19],0
same,Plant response rating WWT,[12]; [17],0
same,Plant response rating WWT,[12]; [18],0
same,Plant response rating FTI,[13]; [16],10 C
same,Plant response rating FTI,[13]; [19],10 S
same,Plant response rating FTI,[13]; [17],10 S
same,Plant response rating FTI,[13]; [18],20 S and 30 S
same,Plant response rating RGI,[14]; [16],10 S
same,Plant response rating RGI,[14]; [17],50 S
same,Plant response rating KOC,[15]; [16],70 S
same,Plant response rating KOC,[15]; 31 g ai/ha,70 S
same,Plant response rating KOC,[15]; [17],80 S
same,Plant response rating KOC,[15]; [18],80 S and 70 S
CCC(=O)Oc1c(Cl)nn(C)c(=O)c1-c1c(C)ccc2ccccc12 (racemic) [5 (Enantiomer 5B)],Plant response rating PWR,[1]; [20],0
same,Plant response rating PWR,[1]; [21],60 G
same,Plant response rating FTI,[2]; [21],30 S
same,Plant response rating RWC,[3]; [20],20 S
same,Plant response rating RWC,[3]; 31 g ai/ha,70 S and 50 S
same,Plant response rating RWC,[3]; [21],70 S
same,Plant response rating RWC,[3]; [22],100 C and 90 C
same,Plant response rating RGI,[5]; [21],10 S
same,Plant response rating KOC,[6]; [21],50 S
same,Plant response rating KOC,[6]; [22],70 S and 50 S
same,Plant response rating BKG,[7]; [20],20 S
same,Plant response rating BKG,[7]; [21],40 G
same,Plant response rating BKG,[7]; [22],50 S and 80 S
same,Plant response rating BYG,[8]; [20],30 S
same,Plant response rating BYG,[8]; [21],40 S
same,Plant response rating BYG,[8]; [22],80 S and 90 S
same,Plant response rating PWR,[9]; [20],90 S
same,Plant response rating PWR,[9]; [22],100 S
same,Plant response rating RWC,[10]; [20],90 S
same,Plant response rating RWC,[10]; [22],100 S and 90 S
same,Plant response rating GAL,[11]; [23],90 S and 100 S
same,Plant response rating WWT,[12]; [20],0
same,Plant response rating WWT,[12]; [21],10 S
same,Plant response rating WWT,[12]; [22],50 S
same,Plant response rating FTI,[13]; [20],20 S
same,Plant response rating FTI,[13]; [23],60 S and 50 S
same,Plant response rating FTI,[13]; [21],60 S
same,Plant response rating FTI,[13]; [22],90 S
same,Plant response rating RGI,[14]; [20],40 C
same,Plant response rating RGI,[14]; [23],70 C and 80 C
same,Plant response rating RGI,[14]; [21],80 C
same,Plant response rating KOC,[15]; [20],50 S
same,Plant response rating KOC,[15]; [21],70 S
same,Plant response rating KOC,[15]; [22],80 S and 90 S
"Cc1ccc2ccc(C)c(-c3c(O)c(Cl)nn(C)c3=O)c2c1 (single isomer, unassigned) [2 (Enantiomer 2A)]",Plant response rating PWR,[1]; 31 g ai/ha,100 C 100 C 100 C 100 C
same,Plant response rating PWR,[1]; 125 g ai/ha,100 C 100 C 100 C 100 C
same,Plant response rating FTI,[2]; [24],20 S
same,Plant response rating FTI,[2]; [25],40 S
same,Plant response rating CPI,"corn (CPI, Zea mays); [24]",10 G
same,Plant response rating CPI,"corn (CPI, Zea mays); 125 g ai/ha",30 G
same,Plant response rating BYG,[4]; [24],0
same,Plant response rating BYG,[4]; [25],50 G
same,Plant response rating RGI,[5]; [24],20 G
same,Plant response rating RGI,[5]; [25],20 G
same,Plant response rating KOC,[6]; [24],10 C
same,Plant response rating KOC,[6]; [25],80 S
same,Plant response rating BKG,[7]; [24],0
same,Plant response rating BKG,[7]; [25],20 S
same,Plant response rating BYG,[8]; [24],20 C
same,Plant response rating BYG,[8]; [25],30 C
same,Plant response rating PWR,[9]; 31 g ai/ha,100 C 100 C 100 C 100 C
same,Plant response rating PWR,[9]; 125 g ai/ha,100 C 100 C 100 C 100 C
same,Plant response rating RWC,[10]; [24],90 S 90 S
same,Plant response rating RWC,[10]; [25],90 S 90 S
same,Plant response rating GAL,[11]; [24],100 C 100 C
same,Plant response rating GAL,[11]; [25],100 C 100 C
same,Plant response rating WWT,[12]; [24],0
same,Plant response rating WWT,[12]; [25],0
same,Plant response rating FTI,[13]; [24],30 S
same,Plant response rating FTI,[13]; [25],60 S
same,Plant response rating RGI,[14]; [24],30 S
same,Plant response rating RGI,[14]; [25],40 S
same,Plant response rating KOC,[15]; 31 g ai/ha,60 S
same,Plant response rating KOC,[15]; [25],80 S
